Read-outs that look alike come from different tables or passages of the source.

Holding throughout (type): biochemical
The target in data set [1] is T1, human α2β1 (Homo sapiens, UniProt P50993).
T1 construct: The coding regions were excised with XbaI and subcloned; made in house; host or cells: Pichia pastoris SMD1165 (clone "b", induced at 20° C.)
Put plainly: biochemical. The method, then:
(§1) Na^+,K^+-ATPase assays were done as described in (Cohen et al., 2005, J Biol Chem, 280, 16610-16618; Strugatsky et al., 2003, J Biol Chem, 278, 46064-46073). 0.1-0.2 μg of purified protein was incubated at 37° C. for 2-10 min in 0.1 ml of Na,K-ATPase reaction medium containing 130 mM NaCl; 20 mM KCl; 3 mM MgCl2; 25 mM Histidine pH 7.4. The reaction was started by addition of 2 mM ATP [^32P-ATP].
(§2) The inhibitor was added directly to the reaction medium at 37° C. immediately prior to addition of ATP, which starts the reaction.

Data set [2] concerns the target T2, human α1β1 (Homo sapiens, UniProt P05023).
T2 construct: The coding regions were excised with XbaI and subcloned; made in house; host or cells: Pichia pastoris SMD1165
Put plainly: biochemical. Here is the method: as §1, §2

Data set [3] deals with T2, human α1β1. Put plainly: Stabilization of human α1β1 Na,K-ATPase activity over time (lipids, sterols, FXYD1). Particulars: for stabilizing effect of sterol on Na,K-ATPase activity: human α1β1 prepared with DOPS or DOPC, FIGS. 9A-B. Here is the method:
(§3) Urea-treated membranes were homogenized with n-dodecyl-β-maltoside (DDM:protein, 2:1 w/w) (cat. No D310, Anatrace) in a medium containing NaCl, 250 mM; Tris.HCl, 20 mM pH 7.4; imidazole, 5 mM; PMSF, 0.5 mM; and glycerol, 10%. The protein concentration could be varied from 1-5 mg/ml and DDM adjusted accordingly from 2-10 mg/ml respectively. The unsolubilized material was removed by ultracentrifugation. Purification was done by metal-chelate chromatography using BD Talon, metal affinity resin (Co^2+-chelate). The DDM-solubilized membranes were incubated overnight at 4° C. with BD Talon beads, at a ratio of 100 μl beads per supernatant from 10 mg of membranes. EDTA was added at 50-250 μM at protein concentrations 1-5 mg/ml, respectively. The beads were washed twice for five minutes with vortexing with five volumes of a solution containing NaCl, 100 mM; Tris.HCl, 20 mM pH 7.4; C12E8, 0.1 mg/ml; DOPS or SOPS 0.05 mg/ml or other lipids and cholesterol at 0.01 mg/ml, as indicated; glycerol, 10%, and imidazole, 10 mM. Protein was eluted by mixing the beads for 40 minutes at 0° C. with one volume of a solution containing imidazole, 150 mM; NaCl, 100 mM; Tris.HCl, 20 mM pH 7.4, C12E8, 0.1 mg/ml; DOPS, or SOPS 0.05 mg/ml or other lipids and cholesterol as indicated; glycerol, 10%. The eluted protein was stored at 0° C. […] Protein concentration was determined by comparative gel densitometry with pig kidney Na^+,K^+-ATPase or by Lowry assay.
as §1
(§4) Aliquots of the preparations were incubated either at 37° C. or 45° C., respectively, for the indicated times, and then returned to 0° C., prior to measurement of Na,K-ATPase activity.

For data set [4], the target named is T1, human α2β1. Put plainly: Stabilization of human α2β1 Na,K-ATPase activity over time (lipids, sterols, FXYD1). Particulars: for stabilizing effect of sterol on α2β1 complex: 0° C., together with DOPS. The method, then: as §3, §1, §4
Another data set relates to Na,K-ATPase. Put plainly: Na,K-ATPase activity and stability with different phosphatidyl serines (FIG. 7). Particulars: for NKA activity: measured immediately after elution from the BD Talon beads. Here is the method:
as §3, §1
The experiment in FIG. 7 compared the stability with different chain lengths and saturation of the side chains.

The target of a further data set is T3, porcine α1β1 (Sus scrofa, UniProt P05024).
T3 construct: made in house; host or cells: Pichia pastoris SMD1165
Put plainly: Na,K-ATPase activity of porcine α1β1 with different phospholipids (FIG. 6A). Particulars: porcine α1β1, FIG. 6A. The method, then: as §3, §1
Both DOPS and DOPI are acid phospholipids, while DOPC and DOPE have no net charge.

Data set [5] deals with human α1β1. Put plainly: Stabilization of human α1β1 Na,K-ATPase activity over time (lipids, sterols, FXYD1). Here is the method: as §3, §1, §4
Data set [6] deals with T2, human α1β1. Put plainly: Initial Na,K-ATPase activity of human α1β1 prepared with phospholipid with or without cholesterol. Particulars: human α1β1, initial activity following elution from the beads, 37° C. Here is the method: as §3, with “mM.” for “mM. Protein was eluted by mixing the beads for 40 minutes at 0° C. with one volume of a solution containing imidazole, 150 mM; NaCl, 100 mM; Tris.HCl, 20 mM pH 7.4, C12E8, 0.1 mg/ml; DOPS, or SOPS 0.05 mg/ml or other lipids and cholesterol as indicated; glycerol, 10%. The eluted protein was stored at 0° C.”, “assay. […]” for “assay.”

Regarding `C[C@@H]1O[C@@H](O[C@H]2C[C@@H](O)[C@]3(CO)[C@H]4[C@H](O)C[C@]5(C)[C@@H](C6=CC(=O)OC6)CC[C@]5(O)[C@@H]4CC[C@]3(O)C2)[C@H](O)[C@H](O)[C@H]1O` [ouabain], the “offset (activity not inhibited), α2β1” value came out at 0.056±0.017 on human α2β1 [1] (37° C., 60 minutes) and 0.069±0.01 at human α2β1 [1] (37° C., reaction 10 minutes). The “extent of inhibition of α1β1” value on human α1β1 [2] (37° C., reaction 10 minutes) is “fully inhibited”.

On to `CO[C@H]1[C@H](O)[C@H](O[C@H]2CC[C@@]3(C)[C@H](CC[C@@H]4[C@@H]3CC[C@]3(C)[C@@H](C5=CC(=O)OC5)CC[C@]43O)C2)O[C@@H](C)[C@@H]1O` [neriifolin], for which the “offset, α2” value at human α2β1 [1] (37° C., FIG. 18B) was 0.12. In addition, the IC50 came out at 29 ± 4.1 nM against human α2β1 [1] (K0.5 for inhibition, α2, 37° C., FIG. 18B, reaction time not stated) and 50 ± 7 nM against human α1β1 [2] (K0.5 for inhibition, α1, 37° C., FIG. 18B, reaction time not stated). The “offset, α1” value on human α1β1 [2] (37° C., FIG. 18B) is recorded as 0. Further, at human α1β1 [2] (conditions of the Na,K-ATPase reaction at 37° C.), the α1/α2 preference result is “no significant α1/α2 preference”.

For `CC(C)CCC[C@@H](C)[C@H]1CC[C@H]2[C@@H]3CC=C4C[C@@H](O)CC[C@]4(C)[C@H]3CC[C@]12C` [cholesterol], the “stabilizing effect of sterol on Na,K-ATPase activity” value at human α1β1 [3] (37° C.) was “greatly stabilizes”. Also, the “stabilizing effect of sterol on α2β1 complex” value on human α2β1 [4] is given as “greatly stabilized”.

`CCCCCCCCCCCCCCCCCC(=O)OC[C@H](COP(=O)(O)OC[C@H](N)C(=O)O)OC(=O)CCCCCCCCCCCCCCCCC` [DSPS, 1,2-Distearoyl-sn-Glycero-3-[Phospho-L-Serine]]: in the data set on Na,K-ATPase, the NKA activity was determined as 4.72 µmol/min/mg.

Take `CC(C)[C@@H](C)/C=C/[C@@H](C)[C@H]1CC[C@H]2C3=CC=C4C[C@@H](O)CC[C@]4(C)[C@H]3CC[C@]12C` [ergosterol]: on human α1β1 [3] (37° C.), the “stabilizing effect of sterol on Na,K-ATPase activity” value was “only a minor stabilizing effect”. Besides, the “stabilizing effect of sterol on α2β1 complex” value at human α2β1 [4] is listed as “much less effective than cholesterol”.

Turning to `CCCCCCCC/C=C\CCCCCCCC(=O)OC[C@H](COP(=O)(O)OC1C(O)C(O)C(O)[C@@H](O)C1O)OC(=O)CCCCCCC/C=C\CCCCCCCC` (some centres unmarked) [DOPI, 1,2-Dioleoyl-sn-Glycero-3-Phosphoinositol], the “maintenance of Na,K-ATPase activity with phospholipid” value (shortened to “maintenance of Na,K-ATPase activity”) at porcine α1β1 is “DOPS>DOPI>>DOPE”.

Consider `CCCCCCCC/C=C\CCCCCCCC(=O)O[C@H](COC(=O)CCCCCCCCCCCCCCC)COP(=O)(O)OC[C@H](N)C(=O)O` [POPS, 1-Palmitoyl-2-Oleoyl-sn-Glycero-3-[Phospho-L-Serine]], for which, in the data set on Na,K-ATPase, the NKA activity amounted to 12.58 µmol/min/mg.

Consider `CCCCCCCCCCCCCCCC(=O)OC[C@H](COP(=O)(O)OC[C@H](N)C(=O)O)OC(=O)CCCCCCCCCCCCCCC` [DPPS, 1,2-Dipalmitoyl-sn-Glycero-3-[Phospho-L-Serine]], for which, in the data set on Na,K-ATPase, the NKA activity is 6.46 µmol/min/mg.

Regarding `CCCCCCCCCCCCCC(=O)OC[C@H](COP(=O)(O)OC[C@H](N)C(=O)O)OC(=O)CCCCCCCCCCCCC` [DMPS, 1,2-Dimyristoyl-sn-Glycero-3-[Phospho-L-Serine]], the NKA activity with Na,K-ATPase was 11.48 µmol/min/mg.

With `C[C@H]1O[C@@H](O[C@H]2[C@@H](O)C[C@H](O[C@H]3[C@@H](O)C[C@H](O[C@H]4CC[C@@]5(C)[C@H](CC[C@@H]6[C@@H]5C[C@@H](O)[C@]5(C)[C@@H](C7=CC(=O)OC7)CC[C@]65O)C4)O[C@@H]3C)O[C@@H]2C)C[C@H](O)[C@@H]1O` [digoxin], the “offset (activity not inhibited), α2β1” value at human α2β1 [1] came out at 0.058±0.016. Also, the “offset (activity not inhibited), α1β1” value on human α1β1 [2] is given as “no significant offset”.

`CCCCCCCC/C=C\CCCCCCCC(=O)O[C@H](COC(=O)CCCCCCCCCCCCCCCCC)COP(=O)(O)OC[C@H](N)C(=O)O` [SOPS, I-Stearoyl-2-Oleoyl-sn-Glycero-3-[Phospho-L-Serine]]: the “stability of Na,K-ATPase activity over time” value with Na,K-ATPase (0° C., FIG. 7) was “declined even more slowly than with the standard DOPS”. In the data set with Na,K-ATPase, the NKA activity was determined as 11.92 µmol/min/mg. Also, the “stabilizing effect of phosphatidyl serine on α1β1” value in the data set with human α1β1 [5] (37° C. and 0° C., FIGS. 8A-B (porcine and human α1β1)) is “significantly more stabilizing than DOPS”.

Turning to “PLM: human FXYD1, subsidiary subunit of Na,K-ATPase, Genbank Accession No. H23593”, the “stability of Na,K-ATPase activity” value is “essentially no loss of activity up to 120 minutes” in the data set on human α1β1 [5] (37° C., human α1β1, PLM with DOPS preparation, SOPS/cholesterol without PLM) and “essentially stable for 60 minutes at 37 °C” with human α2β1 [4] (37° C., α2β1 prepared with SOPS/cholesterol with PLM).

For the compound `CCCCCCCC/C=C\CCCCCCCC(=O)OC[C@H](COP(=O)(O)OCCN)OC(=O)CCCCCCC/C=C\CCCCCCCC` [DOPE, 1,2-Dioleoyl-sn-Glycero-3-Phosphoethanolamine], the “maintenance of Na,K-ATPase activity” value on porcine α1β1 was “DOPS>DOPI>>DOPE”.

With `CCCCCCCC/C=C\CCCCCCCC(=O)OC[C@H](COP(=O)([O-])OCC[N+](C)(C)C)OC(=O)CCCCCCC/C=C\CCCCCCCC` [DOPC, 1,2-Dioleoyl-sn-Glycero-3-Phosphocholine], the “Na, K-ATPase activity” value at human α1β1 [6] is 14.28 µmol/min/mg. The “maintenance of Na,K-ATPase activity” value at porcine α1β1 was “somewhat lower initial Na,K-ATPase activity at 37 °C than for DOPS”.

On to `CCCCCCCC/C=C\CCCCCCCC(=O)OC[C@H](COP(=O)(O)OC[C@H](N)C(=O)O)OC(=O)CCCCCCC/C=C\CCCCCCCC` [DOPS, 1,2-Dioleoyl-sn-Glycero-3-[Phospho-L-Serine]], for which, at human α1β1 [6], the “Na, K-ATPase activity” value came out at 11.64 µmol/min/mg. This compound yielded an NKA activity in the data set with Na,K-ATPase of 11.42 µmol/min/mg. For the same compound, the “half-time for loss of activity” value at human α1β1 [3] (37° C., human α1β1 prepared with DOPS, without PLM) was “about 70 minutes”. Besides, the “remaining activity, of initial activity” value at human α1β1 [3] (after 120 minutes at 37° C., human α1β1 prepared with DOPS, without PLM) is reported as “approximately 20%”. The “maintenance of Na,K-ATPase activity” value on porcine α1β1 is recorded as “DOPS>DOPI>>DOPE”.

One may read the IC50 as the concentration that inhibits the measured activity by half.

(Values after patent publication US7888059B2, “Highly purified and stabilized Na,K-ATPase isoforms and methods of producing same” (Yeda Research and Development Co. Ltd., priority 2006, dated 2011).)
